Experimental data as given in patent publication EP2647628A1, “Substituted tricyclic compounds with activity towards ep1 receptors” (Almirall, S.A., priority 2012, dated 2013).

molecular target: T1, human EP1 receptor (Homo sapiens, UniProt P34995); test: Human EP1 receptor radioligand binding assay; details: [3H]-PGE2 (10 nM), transfected HEK-293 cell membranes, pH 6.0, 25 °C, 60 minutes; Ki by Cheng-Prusoff equation
T1 construct: expressed in transfected cells; host or cells: HEK-293 cell membranes
T1 sequence (P34995 1-402): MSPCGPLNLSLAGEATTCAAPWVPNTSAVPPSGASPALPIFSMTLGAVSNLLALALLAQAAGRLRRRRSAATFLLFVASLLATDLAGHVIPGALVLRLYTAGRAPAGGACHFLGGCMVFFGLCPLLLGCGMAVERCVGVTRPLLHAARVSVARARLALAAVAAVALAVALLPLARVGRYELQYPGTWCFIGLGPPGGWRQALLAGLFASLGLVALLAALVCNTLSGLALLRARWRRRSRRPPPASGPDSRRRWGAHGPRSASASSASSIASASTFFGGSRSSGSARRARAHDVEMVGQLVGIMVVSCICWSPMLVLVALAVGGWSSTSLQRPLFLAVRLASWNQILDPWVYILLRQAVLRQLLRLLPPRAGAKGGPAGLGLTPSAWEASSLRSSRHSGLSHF
Method: To investigate binding properties of EP1 receptor ligands to human EP1 receptor, transfected HEK-293 cell membranes and [3H]-PGE2 (Perkin Elmer) were used. In 96-well plates the assay was carried out with a total reaction volume of 250 µl, containing 25 µl of membrane suspension (30 µg protein/well), 25 µl of [3H]-PGE2 (10 nM) in either absence or presence of 25 µl of either buffer or PGE2 (10 µM) for total and non-specific binding, respectively. Binding buffer contained 10 mM MES, 1 mM MgCl2 and 1 mM EDTA at pH 6.0. Plates were incubated at 25 °C for 60 minutes. After the incubation period, 200 µl of incubate were transferred to MultiScreen HTS, FB plates (Millipore), filtered and plates were washed 6 times with ice-cold 10 mM MES, 1 mM MgCl2 and 1 mM EDTA at pH 6.0. Filters were dried and counted in a MicroBeta scintillation counter (Perkin-Elmer) using EcoScint liquid scintillation cocktail.
Percentage inhibition was calculated relating compounds activity to the 0% inhibition of the wells incubated with 10 nM [3H]-PGE2 alone (total binding) and 100% inhibition of the wells incubated with 10 nM [3H]-PGE2 plus 10 µM PGE2 (non-specific binding). Competition binding curves were carried out by assaying 6 different concentrations with duplicated points. The inhibition constant (Ki) of each compound was calculated by the Cheng-Prusoff equation: Ki = IC50 /(1+[L]/KD) [formula] where IC50 is the concentration of compound that displaces the binding of radioligand by 50%, [L] is the free concentration of radioligand and KD is the dissociation constant of each radioligand. IC50 values were obtained by fitting the data with non-linear regression using XIFit software (IDBS).

| Ki | Compound |
| --- | --- |
| 100 to 500 nM | COc1ccc2c(c1)[C@]1(C)CCC[C@@H]1[C@H](c1ccc(C(=O)O)cc1)N2 [EXAMPLE 69, 4-((3aS,4R,9bR)-2,3,3a,4,5,9b-hexahydro-8-methoxy-9b-methyl-1H-cyclopenta[c]quinolin-4-yl)benzoic acid] |
| > 500 nM | N#Cc1ccc2c(c1)[C@@H]1CCC[C@@H]1[C@H](c1ccc(C(=O)O)cc1)N2 [EXAMPLE 19, 4-((3aS,4R,9bR)-8-cyano-2,3,3a,4,5,9b-hexahydro-1H-cyclopenta[c]quinolin-4-yl)benzoic acid] |
| > 500 nM | Cc1ccc2c(c1)[C@@H]1CCC[C@@H]1[C@H](c1ccc(C(=O)O)cc1)N2C [EXAMPLE 30, 4-((3aS,4R,9bR)-2,3,3a,4,5,9b-hexahydro-5,8-dimethyl-1H-cyclopenta[c]quinolin-4-yl)benzoic acid] |
| < 100 nM | O=C(O)c1ccc([C@@H]2Nc3ccc(Cl)cc3[C@@H]3CCC[C@@H]32)cc1 (single isomer, unassigned) [EXAMPLE 06a] |
| 100 to 500 nM | Cc1ccc2c(c1)[C@@H]1CCC[C@@H]1[C@H](c1ccc(C(=O)O)cc1Cl)N2 [EXAMPLE 47, 3-chloro-4-((3aS, 4R, 9bR)-2,3,3a, 4,5,9b-hexahydro-8-methyl-1H-cyclopenta[c]quinolin-4-yl)benzoic acid] |
| > 500 nM | Cc1cc2c(cc1Cl)N[C@@H](c1ccc(C(=O)O)cc1)[C@H]1CCC[C@@H]21 [EXAMPLE 29, 4-((3aS,4R,9bR)-7-chloro-2,3,3a,4,5,9b-hexahydro-8-methyl-1H-cyclopenta[c]quinolin-4-yl)benzoic acid] |
| 100 to 500 nM | O=C(O)c1ccc([C@@H]2Nc3ccc(Br)cc3[C@@H]3CCC[C@@H]32)cc1 [EXAMPLE 02, 4-((3aS,4R,9bR)-8-bromo-2,3,3a,4,5,9b-hexahydro-1H cyclopenta[c]quinolin-4-yl)benzoic acid] |
| < 100 nM | COc1ccc2c(c1)[C@@H]1CCC[C@@H]1[C@@H](c1c(C)cc(C(=O)O)cc1C)N2 [EXAMPLE 57, 4-((3aS,4S,9bR)-2,3,3a,4,5,9b-hexahydro-8-methoxy-1H-cyclopenta[c]quinolin-4-yl)-3,5-dimethylbenzoic acid] |
| 100 to 500 nM | Cc1cc(C(=O)O)ccc1[C@@H]1Nc2ccc(C3CC3)cc2[C@@H]2CCC[C@@H]21 [EXAMPLE 43, 4-((3aS, 4R, 9bR)-8-cyclopropyl-2,3,3a, 4,5,9b-hexahydro-1H cyclopenta[c]quinolin-4-yl)-3-methylbenzoic acid] |
| 100 to 500 nM | Cc1ccc2c(c1)[C@]1(C)CCC[C@@H]1[C@H](c1ccc(C(=O)O)cc1C)N2 [EXAMPLE 75, 4-((3aS, 4R, 9bR)-2,3,3a, 4,5,9b-hexahydro-8,9b-dimethyl-1H-cyclopenta[c]quinolin-4-yl)-3-methylbenzoic acid] |
| < 100 nM | Cc1ccc2c(c1)[C@@H]1CCC[C@@H]1[C@H](c1ccc(C(=O)O)cc1C)N2 (single isomer, unassigned) [EXAMPLE 37a] |
| 100 to 500 nM | CC(C)c1ccc2c(c1)[C@@H]1CCC[C@@H]1[C@H](c1ccc(C(=O)O)cc1)N2 [EXAMPLE 18, 4-((3aS,4R,9bR)-2,3,3a,4,5,9b-hexahydro-8-isopropyl-1H-cyclopenta[c]quinolin-4-yl)benzoic acid] |
| > 500 nM | Cc1ccc2c(c1)[C@@H]1CCC[C@@H]1[C@H](c1ccc(C(=O)O)c(C)c1)N2 [EXAMPLE 36, 4-((3aS, 4R, 9bR)-2,3,3a, 4,5,9b-hexahydro-8-methyl-1H-cyclopenta[c]quinolin-4-yl)-2-methylbenzoic acid] |
| 100 to 500 nM | CCc1cc(C(=O)O)ccc1[C@H]1Nc2ccc(OC)cc2[C@@H]2CCC[C@H]12 [EXAMPLE 55, 3-ethyl-4-((3aS,4S,9bR)-2,3,3a,4,5,9b-hexahydro-8-methoxy-1H-cyclopenta[c]quinolin-4-yl)benzoic acid] |
| < 100 nM | COc1ccc2c(c1)[C@@H]1CCC[C@@H]1[C@H](c1ccc(C(=O)O)cc1)N2 (racemic) [EXAMPLE 07, 4-((3aS,4R,9bR)-2,3,3a,4,5,9b-hexahydro-8-methoxy-1H-cyclopenta[c]quinolin-4-yl)benzoic acid] |
| > 500 nM | Cc1ccc2c(c1)[C@@H]1CCC[C@@H]1[C@H](c1cc(C(=O)O)nn1C)N2 [EXAMPLE 62, 5-((3aS,4R,9bR)-2,3,3a,4,5,9b-hexahydro-8-methyl-1H-cyclopenta[c]quinolin-4-yl)-1-methyl-1H-pyrazole-3-carboxylic acid] |
| < 100 nM | Cc1ccc2c(c1)[C@@H]1CCC[C@@H]1[C@@H](c1c(C)cc(C(=O)O)cc1C)N2 [EXAMPLE 56, 4-((3aS,4S,9bR)-2,3,3a,4,5,9b-hexahydro-8-methyl-1H cyclopenta[c]quinolin-4-yl)-3,5-dimethylbenzoic acid] |
| > 500 nM | CCCc1ccc2c(c1)[C@@H]1CCC[C@@H]1[C@H](c1ccc(C(=O)O)cc1)N2 [EXAMPLE 12, 4-((3aS, 4R, 9bR)-2,3,3a, 4,5,9b-hexahydro-8-propyl-1H-cyclopenta[c]quinolin-4-yl)benzoic acid] |
| 100 to 500 nM | Cc1ccc2c(c1)[C@@H]1CCC[C@@H]1[C@H](c1ccc(C(=O)O)cc1)N2 (racemic) [EXAMPLE 04, 4-((3aS,4R,9bR)-2,3,3a,4,5,9b-hexahydro-8-methyl-1H-cyclopenta[c]quinolin-4-yl)benzoic acid] |
